Each molecule was assayed against Transcription factor p65 (Homo sapiens) (UniProt Q04206) (assay: Inhibition of NF-kappaB DNA binding by EMSA).
Chain of Transcription factor p65 (Homo sapiens) (Q04206 whole entry): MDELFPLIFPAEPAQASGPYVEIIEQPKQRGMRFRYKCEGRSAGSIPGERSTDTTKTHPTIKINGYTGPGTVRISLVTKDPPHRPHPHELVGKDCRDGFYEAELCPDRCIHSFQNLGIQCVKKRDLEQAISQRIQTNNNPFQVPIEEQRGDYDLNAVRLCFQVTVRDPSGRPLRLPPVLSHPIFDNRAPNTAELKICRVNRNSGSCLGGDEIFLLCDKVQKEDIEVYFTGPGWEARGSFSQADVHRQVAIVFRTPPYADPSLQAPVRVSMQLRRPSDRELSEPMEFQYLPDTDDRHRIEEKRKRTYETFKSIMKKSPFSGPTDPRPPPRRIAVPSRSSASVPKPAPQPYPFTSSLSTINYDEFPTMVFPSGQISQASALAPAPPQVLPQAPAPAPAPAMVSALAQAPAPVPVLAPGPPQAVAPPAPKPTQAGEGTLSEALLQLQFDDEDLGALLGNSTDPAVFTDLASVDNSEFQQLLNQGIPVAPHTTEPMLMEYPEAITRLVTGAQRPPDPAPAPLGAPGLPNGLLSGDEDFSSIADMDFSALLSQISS
Work on `C=C1C(=O)O[C@@H]2C[C@@H](C)[C@@H]3CCC(=O)[C@@]3(C)C[C@H]12` yielded an IC100 of 50 µM. `C=C1C(=O)O[C@@H]2C3O[C@]3(C)CC/C=C(\C)CC[C@@H]12` (stereo partly drawn) was tested, and the IC100 was 20 µM. `C=C1C(=O)O[C@@H]2/C=C(\C)CC/C=C(\C)CC[C@@H]12` gave an IC100 of 50 µM. `C=C1C(=O)O[C@H]2/C=C(\C)CC/C=C(\C)[C@@H](OC(=O)/C(C)=C/C)[C@H](O)[C@@H]12` gave an IC100 of 100 µM. Molecule `C=C1C(=O)C=C2[C@H]1C[C@@H]1C(=C)C(=O)O[C@@H]1C[C@@H]2C` has an IC100 of 10 µM. In the case of `C=C(C)C(=O)O[C@@H]1C[C@]2(C)CC[C@@](O)(O2)/C(C)=C\[C@H]2OC(=O)C(=C)[C@@H]21`, the IC100 is reported as 50 µM. `C=C1C(=O)O[C@H]2CC(=C)[C@H](O)CC/C(C)=C/[C@@H](O)[C@H]12` gave an IC100 of 50 µM. For `C=C1C(=O)O[C@H]2C/C(CO)=C/CC/C(COC(=O)C(C)C(C)O)=C/C[C@H]12` (stereo partly drawn), the IC100 was 50 µM. For `C=C1C(=O)O[C@H]2/C=C(\C)CC/C=C(\C)[C@@H](OC(=O)[C@@]3(C)O[C@H]3C)[C@H](O)[C@@H]12`, the IC100 was 50 µM. Molecule `C=C1C(=O)O[C@@H]2[C@H]3C(C)=CC[C@H]3[C@](C)(O)C[C@H](OC(C)=O)[C@@H]12` has an IC100 of 20 µM. In the case of `C=C1C(=O)O[C@H]2/C=C(\C)[C@@H](O)CC/C(C)=C/[C@@H](O)[C@H]12`, the IC100 is reported as 200 µM. `C=C(C)C(=O)O[C@H]1[C@H]2C(=C)C(=O)O[C@@H]2/C=C(\COC(C)=O)CC/C=C(/C=O)[C@@H]1O` gave an IC100 of 5 µM. Work on `C=C1C(=O)O[C@@H]2C[C@@H](C)[C@@H]3C=CC(=O)[C@@]3(C)[C@@H](OC(=O)C(C)C)[C@H]12` yielded an IC100 of 20 µM. In the case of `C=C(CO)C(=O)OC/C1=C\C[C@@H]2C(=C)C(=O)O[C@H]2C/C(CO)=C/CC1`, the IC100 is reported as 20 µM. For `C=C(C)C(=O)O[C@H]1/C(C=O)=C\CC/C(C)=C/[C@H]2OC(=O)C(=C)[C@@H]2[C@@H]1O`, the IC100 was 5 µM. Work on `C=C1C(=O)O[C@@H]2[C@H]3C(C)=CC[C@H]3[C@](C)(O)C[C@H](O)[C@@H]12` yielded an IC100 of 100 µM. For `C=C1[C@@H]2[C@H]3OC(=O)C(=C)[C@@H]3CCC(=C)[C@@H]2C[C@@H]1OC(C)=O`, the IC100 was 100 µM. In the case of `C=C1C(=O)O[C@H]2C/C(CO)=C/CC/C(COC(=O)C(C)C)=C/C[C@H]12`, the IC100 is reported as 50 µM. `C=C1C(=O)O[C@H]2C/C(CO)=C/CC/C(COC(=O)C3(C)CO3)=C/C[C@H]12` (stereo partly drawn) showed an IC100 of 50 µM. `CC[C@@H](C)[C@@]1(O)O[C@H]2C[C@@]3(C)OC(=CC3=O)/C(CO)=C\[C@H]3OC(=O)[C@@]1(C)C23` (stereo partly drawn) gave an IC100 of 100 µM. `C=C1C(=O)O[C@@H]2/C=C(/CO)C3=CC(=O)[C@@](C)(C[C@H](OC(=O)/C(C)=C\C)[C@@H]12)O3` was tested, and the IC100 was 5 µM. Work on `C=C1C(=O)O[C@@H]2/C=C(/C)C3=CC(=O)[C@@](C)(C[C@@H](OC(=O)/C(C)=C/C)[C@@H]12)O3` yielded an IC100 of 5 µM. With `C/C=C(\C)C(=O)O[C@H]1[C@@H]2[C@H](C)C(=O)O[C@@H]2C[C@@H](C)[C@@H]2C=CC(=O)[C@]21C` the IC100 was 100 µM. In the case of `C=C1[C@H](O)C[C@@H](O)[C@]2(C)CC[C@H]3C(=C)C(=O)O[C@@H]3[C@@H]12`, the IC100 is reported as 200 µM. `C=C1C(=O)O[C@@H]2/C=C(\C)CC/C=C(/C)CC[C@@]12O` was tested, and the IC100 was 10 µM. `C=C(C)C(=O)O[C@@H]1C[C@@](C)(O)[C@@H]2C(=O)C=C(C)[C@@H]2[C@H]2OC(=O)C(=C)[C@@H]21` gave an IC100 of 20 µM. `C=C1C(=O)C=C2[C@H]1C[C@@H]1C(=C)C(=O)O[C@H]1C[C@@H]2C` showed an IC100 of 5 µM. `C=C1C(=O)O[C@@H]2/C=C(\COC(=O)C(C)C)CC/C=C(\CO)[C@H](O)C[C@@H]12` showed an IC100 of 100 µM. Work on `C=C1C(=O)O[C@@H]2[C@H]3C(C)=CC[C@H](O)[C@]3(C)CC[C@@H]12` yielded an IC100 of 300 µM. `C=C(C)C(=O)O[C@@H]1C[C@@]2(C)OC(=CC2=O)/C(C)=C\[C@H]2OC(=O)C(=C)[C@@H]21` was tested, and the IC100 was 10 µM. With `C=C(C)C(=O)O[C@H]1[C@H]2C(=C)C(=O)O[C@@H]2[C@@H](O)[C@@]2(CC/C=C(/C=O)[C@@H]1OC(C)=O)CO2` the IC100 was 5 µM. `C=C(C)C(=O)O[C@H]1C[C@@]2(C)OC(=CC2=O)C(=C)[C@@H](Cl)[C@H]2OC(=O)C(=C)[C@@H]21` gave an IC100 of 5 µM. For `C=C1C(=O)O[C@@H]2C3=C(C(=O)C[C@@H]3C)[C@@H](C)CC[C@@H]12`, the IC100 was 20 µM.

From ChEMBL document CHEMBL1146082, “Development of a structural model for NF-kappaB inhibition of sesquiterpene lactones using self-organizing neural networks” (J Med Chem, 2006)
